In US10723753B2, “Ras inhibitors and uses thereof” (Dana-Farber Cancer Institute, Inc., priority 2013, dated 2020):
pEC50: −log10 of the molar value.

Molecular target: K-Ras G12C (Homo sapiens, UniProt P01116, G12C)
Experiment: Fluorescence polarization assay of K-Ras G12C binding to Oregon green labelled RBD
Details: for pEC50: Ras:Raf (RBD) binding, 95% CI given alongside, read-out: EC50 of nucleotide:Ras complex for RBD
From the text: Oregon green (OG) fluorescent dye was coupled to this cysteine in RBD using maleimide chemistry resulting in covalent addition of one OG, as verified by chromatography and mass spectrometry.
This allowed the testing of multiple nucleotides for their ability to induce Ras:Raf binding.

| Effect on binding of G12C K-Ras to the RBD protein (added at a 1:10 molar ratio to G12C K-Ras prior to the assay) | pEC50 (fluorescence polarization) | Compound | Interaction of ligand-bound K-Ras G12C with RBD (fluorescence polarization, OG-labelled RBD, recombinant K-Ras G12C bound to the named ligand) |
| --- | --- | --- | --- |
| appeared to prevent binding |  | CCCC(CCC)COC(=O)[C@H](C)NP(=O)(OCCNC(=O)CCl)OP(=O)(O)OC[C@H]1O[C@@H](n2cnc3c(=O)[nH]c(N)nc32)[C@H](O)[C@@H]1O (stereo partly drawn) [Example 3, (2S)-2-propylpentyl 2-(((((((2R,3S,4R,5R)-5-(2-amino-6-oxo-1H-purin-9(6H)-yl)-3,4-dihydroxytetrahydrofuran-2-yl)methoxy)(hydroxy)phosphoryl)oxy)(2-(2-chloroacetamido)ethoxy)phosphoryl)amino)propanoate] |  |
|  | 6.97 | Nc1nc2c(ncn2[C@@H]2O[C@H](COP(=O)(O)OP(=O)(O)O)[C@@H](O)[C@H]2O)c(=O)[nH]1 [GDP] |  |
|  | 7.59 | Nc1nc2c(ncn2[C@@H]2O[C@H](COP(=O)(O)OP(=O)(O)OP(=O)(O)O)[C@@H](O)[C@H]2O)c(=O)[nH]1 [GTP] | higher affinity for RBD than the GDP bound form |
